Data reported in BindingDB's records for doi:10.1016/s0960-894x(98)00660-x (Smithkline Beecham Research Unit, 1999).

Target: V-type proton ATPase (Gallus gallus)
Assay: Compound was measured for the inhibition of bafilomycin-sensitive ATPase activity in partially purified membrane preparation from chicken osteoclast (cOC)

SMILES: CO/C(=C\C=C\c1cc2cc(Cl)c(Cl)cc2[nH]1)C(=O)NC1CC(C)(C)N(C)C(C)(C)C1 [(2Z,4E)-5-(5,6-Dichloro-1H-indol-2-yl)-2-methoxy-penta-2,4-dienoic acid (1,2,2,6,6-pentamethyl-piperidin-4-yl)-amide]
- IC50: 27 nM

SMILES: CO/C(=C/C=C/c1cc2cc(Cl)c(Cl)cc2[nH]1)C(=O)NC1CC(C)(C)N(C)C(C)(C)C1 [TCMDC-139097]
- IC50: 2360 nM

SMILES: CO/C(=C\C=C/c1cc2cc(Cl)c(Cl)cc2[nH]1)C(=O)NC1CC(C)(C)N(C)C(C)(C)C1 [TCMDC-139106]
- IC50: 663 nM
